± gives the expanded uncertainty stated by the source.
Assay: xn = mol fraction of the nth substance listed
Settings: for surface tension liquid-gas: Wilhelmy plates; for viscosity / mass density: 101 kPa, Liquid; for viscosity: Capillary tube (Ostwald / Ubbelohde) method; for mass density: Vibrating tube method

## CC(=O)[O-].CCn1cc[n+](C)c1 [1-ethyl-3-methylimidazolium acetate] + CC(C)O
288.15 K, x1 = 0.1
  surface tension liquid-gas: 23.6 ± 0.6 mN/m
  viscosity: 5.55 ± 0.066 mPa·s
  mass density: 852.68 ± 0.2 kg/m3
288.15 K, x1 = 0.2
  surface tension liquid-gas: 25.5 ± 0.6 mN/m
  viscosity: 8.842 ± 0.11 mPa·s
  mass density: 901.6 ± 0.24 kg/m3
288.15 K, x1 = 0.3
  surface tension liquid-gas: 27.5 ± 0.6 mN/m
  viscosity: 14.85 ± 0.18 mPa·s
  mass density: 941.78 ± 0.3 kg/m3
288.15 K, x1 = 0.4
  surface tension liquid-gas: 29.4 ± 0.6 mN/m
  viscosity: 24.85 ± 0.32 mPa·s
  mass density: 976.37 ± 0.37 kg/m3
288.15 K, x1 = 0.5
  surface tension liquid-gas: 31.5 ± 0.6 mN/m
  viscosity: 40.69 ± 0.54 mPa·s
  mass density: 1006.01 ± 0.47 kg/m3
288.15 K, x1 = 0.5997
  surface tension liquid-gas: 33 ± 0.6 mN/m
288.15 K, x1 = 0.7
  surface tension liquid-gas: 35.1 ± 0.7 mN/m
  viscosity: 100.7 ± 1.8 mPa·s
  mass density: 1053.83 ± 0.76 kg/m3
288.15 K, x1 = 0.7994
  surface tension liquid-gas: 37.7 ± 0.7 mN/m
288.15 K, x1 = 0.9
  surface tension liquid-gas: 41.2 ± 0.7 mN/m
  viscosity: 212.4 ± 5.7 mPa·s
  mass density: 1090.17 ± 1.1 kg/m3
288.15 K, x1 = 1
  surface tension liquid-gas: 47.7 ± 0.8 mN/m
  viscosity: 283.8 ± 8.9 mPa·s
  mass density: 1105.2 ± 1.4 kg/m3
288.15 K, x1 = 0.5998
  viscosity: 64.17 ± 0.88 mPa·s
  mass density: 1031.55 ± 0.6 kg/m3
288.15 K, x1 = 0.7993
  viscosity: 147.9 ± 3.2 mPa·s
  mass density: 1072.97 ± 0.94 kg/m3
298.15 K, x1 = 0.1
  surface tension liquid-gas: 23.2 ± 0.6 mN/m
  viscosity: 4.171 ± 0.05 mPa·s
  mass density: 845.22 ± 0.2 kg/m3
298.15 K, x1 = 0.2
  surface tension liquid-gas: 25.1 ± 0.6 mN/m
  viscosity: 6.64 ± 0.08 mPa·s
  mass density: 894.12 ± 0.24 kg/m3
298.15 K, x1 = 0.3
  surface tension liquid-gas: 26.9 ± 0.6 mN/m
  viscosity: 10.84 ± 0.13 mPa·s
  mass density: 934.95 ± 0.3 kg/m3
298.15 K, x1 = 0.4
  surface tension liquid-gas: 29 ± 0.6 mN/m
  viscosity: 17.31 ± 0.22 mPa·s
  mass density: 969.7 ± 0.37 kg/m3
298.15 K, x1 = 0.5
  surface tension liquid-gas: 31.2 ± 0.6 mN/m
  viscosity: 26.86 ± 0.36 mPa·s
  mass density: 999.47 ± 0.46 kg/m3
298.15 K, x1 = 0.5997
  surface tension liquid-gas: 32.6 ± 0.6 mN/m
298.15 K, x1 = 0.7
  surface tension liquid-gas: 34.5 ± 0.7 mN/m
  viscosity: 58.42 ± 0.82 mPa·s
  mass density: 1047.51 ± 0.75 kg/m3
298.15 K, x1 = 0.7994
  surface tension liquid-gas: 37.4 ± 0.7 mN/m
298.15 K, x1 = 0.9
  surface tension liquid-gas: 40.9 ± 0.7 mN/m
  viscosity: 109.9 ± 2.2 mPa·s
  mass density: 1084.05 ± 1.1 kg/m3
298.15 K, x1 = 1
  surface tension liquid-gas: 47.1 ± 0.8 mN/m
  viscosity: 139 ± 3.1 mPa·s
  mass density: 1099.03 ± 1.4 kg/m3
298.15 K, x1 = 0.5998
  viscosity: 40.4 ± 0.55 mPa·s
  mass density: 1025.12 ± 0.59 kg/m3
298.15 K, x1 = 0.7993
  viscosity: 81.31 ± 1.3 mPa·s
  mass density: 1066.77 ± 0.92 kg/m3
308.15 K, x1 = 0.1
  surface tension liquid-gas: 22.5 ± 0.6 mN/m
  viscosity: 3.204 ± 0.038 mPa·s
  mass density: 837.68 ± 0.21 kg/m3
308.15 K, x1 = 0.2
  surface tension liquid-gas: 24.6 ± 0.6 mN/m
  viscosity: 5.142 ± 0.062 mPa·s
  mass density: 887.04 ± 0.24 kg/m3
308.15 K, x1 = 0.3
  surface tension liquid-gas: 26.6 ± 0.6 mN/m
  viscosity: 8.186 ± 0.1 mPa·s
  mass density: 928.14 ± 0.3 kg/m3
308.15 K, x1 = 0.4
  surface tension liquid-gas: 28.3 ± 0.6 mN/m
  viscosity: 12.6 ± 0.16 mPa·s
  mass density: 963.07 ± 0.37 kg/m3
308.15 K, x1 = 0.5
  surface tension liquid-gas: 30.5 ± 0.6 mN/m
  viscosity: 18.61 ± 0.24 mPa·s
  mass density: 992.98 ± 0.46 kg/m3
308.15 K, x1 = 0.5997
  surface tension liquid-gas: 32.1 ± 0.6 mN/m
308.15 K, x1 = 0.7
  surface tension liquid-gas: 34.1 ± 0.7 mN/m
  viscosity: 36.9 ± 0.52 mPa·s
  mass density: 1041.21 ± 0.74 kg/m3
308.15 K, x1 = 0.7994
  surface tension liquid-gas: 37 ± 0.7 mN/m
308.15 K, x1 = 0.9
  surface tension liquid-gas: 40.5 ± 0.7 mN/m
  viscosity: 63.37 ± 0.96 mPa·s
  mass density: 1077.92 ± 1.1 kg/m3
308.15 K, x1 = 1
  surface tension liquid-gas: 46.6 ± 0.8 mN/m
  viscosity: 77.32 ± 1.3 mPa·s
  mass density: 1092.93 ± 1.3 kg/m3
308.15 K, x1 = 0.5998
  viscosity: 26.86 ± 0.36 mPa·s
  mass density: 1018.74 ± 0.58 kg/m3
308.15 K, x1 = 0.7993
  viscosity: 49.32 ± 0.72 mPa·s
  mass density: 1060.56 ± 0.91 kg/m3
318.15 K, x1 = 0.1
  surface tension liquid-gas: 21.8 ± 0.6 mN/m
  viscosity: 2.511 ± 0.03 mPa·s
  mass density: 829.99 ± 0.21 kg/m3
318.15 K, x1 = 0.2
  surface tension liquid-gas: 24.1 ± 0.6 mN/m
  viscosity: 4.067 ± 0.049 mPa·s
  mass density: 879.94 ± 0.24 kg/m3
318.15 K, x1 = 0.3
  surface tension liquid-gas: 26.1 ± 0.6 mN/m
  viscosity: 6.344 ± 0.078 mPa·s
  mass density: 921.35 ± 0.3 kg/m3
318.15 K, x1 = 0.4
  surface tension liquid-gas: 27.9 ± 0.6 mN/m
  viscosity: 9.506 ± 0.12 mPa·s
  mass density: 956.47 ± 0.37 kg/m3
318.15 K, x1 = 0.5
  surface tension liquid-gas: 29.9 ± 0.6 mN/m
  viscosity: 13.61 ± 0.18 mPa·s
  mass density: 986.52 ± 0.46 kg/m3
318.15 K, x1 = 0.5997
  surface tension liquid-gas: 31.6 ± 0.6 mN/m
318.15 K, x1 = 0.7
  surface tension liquid-gas: 33.7 ± 0.7 mN/m
  viscosity: 25.08 ± 0.35 mPa·s
  mass density: 1034.96 ± 0.72 kg/m3
318.15 K, x1 = 0.7994
  surface tension liquid-gas: 36.8 ± 0.7 mN/m
318.15 K, x1 = 0.9
  surface tension liquid-gas: 40.2 ± 0.7 mN/m
  viscosity: 40.36 ± 0.6 mPa·s
  mass density: 1071.81 ± 1.1 kg/m3
318.15 K, x1 = 1
  surface tension liquid-gas: 46.1 ± 0.8 mN/m
  viscosity: 47.37 ± 0.73 mPa·s
  mass density: 1086.86 ± 1.3 kg/m3
318.15 K, x1 = 0.5998
  viscosity: 18.87 ± 0.25 mPa·s
  mass density: 1012.39 ± 0.57 kg/m3
318.15 K, x1 = 0.7993
  viscosity: 32.33 ± 0.46 mPa·s
  mass density: 1054.38 ± 0.9 kg/m3
328.15 K, x1 = 0.1
  surface tension liquid-gas: 20.8 ± 0.6 mN/m
  viscosity: 1.998 ± 0.024 mPa·s
  mass density: 822.14 ± 0.21 kg/m3
328.15 K, x1 = 0.2
  surface tension liquid-gas: 23.5 ± 0.6 mN/m
  viscosity: 3.272 ± 0.04 mPa·s
  mass density: 872.8 ± 0.25 kg/m3
328.15 K, x1 = 0.3
  surface tension liquid-gas: 25.5 ± 0.6 mN/m
  viscosity: 5.049 ± 0.063 mPa·s
  mass density: 914.57 ± 0.3 kg/m3
328.15 K, x1 = 0.4
  surface tension liquid-gas: 27.4 ± 0.6 mN/m
  viscosity: 7.378 ± 0.093 mPa·s
  mass density: 949.91 ± 0.37 kg/m3
328.15 K, x1 = 0.5
  surface tension liquid-gas: 29.6 ± 0.6 mN/m
  viscosity: 10.28 ± 0.13 mPa·s
  mass density: 980.11 ± 0.46 kg/m3
328.15 K, x1 = 0.5997
  surface tension liquid-gas: 31.5 ± 0.6 mN/m
328.15 K, x1 = 0.7
  surface tension liquid-gas: 33.4 ± 0.7 mN/m
  viscosity: 17.83 ± 0.24 mPa·s
  mass density: 1028.76 ± 0.71 kg/m3
328.15 K, x1 = 0.7994
  surface tension liquid-gas: 36.4 ± 0.7 mN/m
328.15 K, x1 = 0.9
  surface tension liquid-gas: 40 ± 0.7 mN/m
  viscosity: 27.23 ± 0.4 mPa·s
  mass density: 1065.74 ± 1.1 kg/m3
328.15 K, x1 = 1
  surface tension liquid-gas: 45.9 ± 0.8 mN/m
  viscosity: 31.29 ± 0.48 mPa·s
  mass density: 1080.82 ± 1.3 kg/m3
328.15 K, x1 = 0.5998
  viscosity: 13.77 ± 0.18 mPa·s
  mass density: 1006.1 ± 0.56 kg/m3
328.15 K, x1 = 0.7993
  viscosity: 22.39 ± 0.32 mPa·s
  mass density: 1048.25 ± 0.89 kg/m3
338.15 K, x1 = 0.1
  surface tension liquid-gas: 20.1 ± 0.6 mN/m
  viscosity: 1.617 ± 0.019 mPa·s
  mass density: 814.08 ± 0.21 kg/m3
338.15 K, x1 = 0.2
  surface tension liquid-gas: 22.6 ± 0.6 mN/m
  viscosity: 2.683 ± 0.032 mPa·s
  mass density: 865.6 ± 0.25 kg/m3
338.15 K, x1 = 0.3
  surface tension liquid-gas: 25 ± 0.6 mN/m
  viscosity: 4.086 ± 0.051 mPa·s
  mass density: 907.78 ± 0.3 kg/m3
338.15 K, x1 = 0.4
  surface tension liquid-gas: 26.9 ± 0.6 mN/m
  viscosity: 5.876 ± 0.074 mPa·s
  mass density: 943.37 ± 0.37 kg/m3
338.15 K, x1 = 0.5
  surface tension liquid-gas: 29.1 ± 0.6 mN/m
  viscosity: 8.019 ± 0.1 mPa·s
  mass density: 973.74 ± 0.46 kg/m3
338.15 K, x1 = 0.5997
  surface tension liquid-gas: 30.7 ± 0.6 mN/m
338.15 K, x1 = 0.7
  surface tension liquid-gas: 32.9 ± 0.7 mN/m
  viscosity: 13.23 ± 0.18 mPa·s
  mass density: 1022.6 ± 0.7 kg/m3
338.15 K, x1 = 0.7994
  surface tension liquid-gas: 36 ± 0.7 mN/m
338.15 K, x1 = 0.9
  surface tension liquid-gas: 39.3 ± 0.7 mN/m
  viscosity: 19.37 ± 0.29 mPa·s
  mass density: 1059.72 ± 1.1 kg/m3
338.15 K, x1 = 1
  surface tension liquid-gas: 45.4 ± 0.8 mN/m
  viscosity: 21.85 ± 0.33 mPa·s
  mass density: 1074.83 ± 1.3 kg/m3
338.15 K, x1 = 0.5998
  viscosity: 10.46 ± 0.14 mPa·s
  mass density: 999.84 ± 0.55 kg/m3
338.15 K, x1 = 0.7993
  viscosity: 16.22 ± 0.23 mPa·s
  mass density: 1042.17 ± 0.87 kg/m3

Source: the NIST ThermoML archive (doi:10.1021/acs.jced.5b01023)
